Data taken from ChEMBL document CHEMBL5523702, “Synthesis and structure-activity optimization of azepane-containing derivatives as PTPN2/PTPN1 inhibitors” (Eur J Med Chem, 2024).
pIC50, pKd: −log10 of the molar value. Values after ≈ are worked out from the molar mass of the structure shown.

How the values were obtained:
[1] = biological target: T1, Tyrosine-protein phosphatase non-receptor type 2 (Homo sapiens, UniProt P17706); assay: Inhibition of human PTPN2 using DiFMUP as substrate by fluorescence based phosphatase assay
T1 sequence (P17706 whole entry): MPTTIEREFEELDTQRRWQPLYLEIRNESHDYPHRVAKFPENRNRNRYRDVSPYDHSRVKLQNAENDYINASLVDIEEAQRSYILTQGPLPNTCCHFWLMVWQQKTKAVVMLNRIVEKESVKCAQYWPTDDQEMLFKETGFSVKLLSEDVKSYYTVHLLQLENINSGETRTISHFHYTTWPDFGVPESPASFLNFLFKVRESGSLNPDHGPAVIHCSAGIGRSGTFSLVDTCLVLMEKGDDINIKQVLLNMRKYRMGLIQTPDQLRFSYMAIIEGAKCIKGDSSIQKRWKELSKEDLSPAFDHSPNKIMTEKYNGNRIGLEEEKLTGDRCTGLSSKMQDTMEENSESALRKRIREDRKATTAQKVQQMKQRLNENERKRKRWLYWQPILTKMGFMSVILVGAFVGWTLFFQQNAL

[2] = Inhibition of PTPN2 in IFN-gamma induced mouse B16-F10 cells; type: cell-based
[3] = Half life in mouse at 10 mg/kg, po; type: ADME, organism-based; settings: in vivo
[4] = Cmax in mouse at 10 mg/kg, po; type: ADME, organism-based; settings: in vivo
[5] = AUC (0 to t) in mouse at 10 mg/kg, po; type: ADME, organism-based; settings: in vivo
[6] = biological target: T2, Tyrosine-protein phosphatase non-receptor type 1 (Homo sapiens, UniProt P18031); assay: Inhibition of human PTP1B
T2 sequence (P18031 whole entry): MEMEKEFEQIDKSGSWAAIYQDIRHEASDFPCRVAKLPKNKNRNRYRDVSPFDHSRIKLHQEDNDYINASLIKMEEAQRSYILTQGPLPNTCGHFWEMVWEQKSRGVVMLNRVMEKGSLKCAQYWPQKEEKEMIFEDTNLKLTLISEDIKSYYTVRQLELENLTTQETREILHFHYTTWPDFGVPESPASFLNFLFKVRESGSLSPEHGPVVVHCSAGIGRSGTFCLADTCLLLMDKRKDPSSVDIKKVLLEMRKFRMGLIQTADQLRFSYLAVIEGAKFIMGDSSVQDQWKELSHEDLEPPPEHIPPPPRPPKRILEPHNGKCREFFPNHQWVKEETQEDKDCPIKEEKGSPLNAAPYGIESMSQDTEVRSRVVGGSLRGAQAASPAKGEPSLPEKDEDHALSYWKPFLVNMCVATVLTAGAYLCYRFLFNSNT

[7] = Plasma protein binding in human assessed as unbound fraction; type: ADME, cell-free
[8] = Plasma protein binding in mouse assessed as unbound fraction; type: ADME, cell-free
[9] = Plasma protein binding in rat assessed as unbound fraction; type: ADME, cell-free
[10] = biological target: T1, Tyrosine-protein phosphatase non-receptor type 2; assay: Binding affinity to human PTPN2 assessed as dissociation constant measured upto 300 secs by SPR analysis
[11] = Clearance in mouse assessed as liver blood flow at 1 mg/kg, iv; type: ADME, organism-based; settings: in vivo
[12] = Volume of distribution at steady state in mouse at 1 mg/kg, iv; type: ADME, organism-based; settings: in vivo, read-out: Vdss
[13] = Oral bioavailability in mouse at 10 mg/kg; type: ADME, organism-based; settings: in vivo
[14] = Cmax in mouse at 50 mg/kg, po; type: ADME, organism-based; settings: in vivo
[15] = AUC (0 to t) in mouse at 50 mg/kg, po; type: ADME, organism-based; settings: in vivo
[16] = Half life in mouse at 50 mg/kg, po; type: ADME, organism-based; settings: in vivo
[17] = Oral bioavailability in mouse at 50 mg/kg; type: ADME, organism-based; settings: in vivo
[18] = Clearance in rat assessed as liver blood flow at 1 mg/kg, iv; type: ADME, organism-based; settings: in vivo
[19] = Volume of distribution at steady state in rat at 1 mg/kg, iv; type: ADME, organism-based; settings: in vivo, read-out: Vdss
[20] = Cmax in rat at 10 mg/kg, po; type: ADME, organism-based; settings: in vivo
[21] = AUC (0 to t) in rat at 10 mg/kg, po; type: ADME, organism-based; settings: in vivo
[22] = Half life in rat at 10 mg/kg, po; type: ADME, organism-based; settings: in vivo
[23] = Oral bioavailability in rat at 10 mg/kg; type: ADME, organism-based; settings: in vivo
[24] = Clearance in dog assessed as liver blood flow at 1 mg/kg, iv; type: ADME, organism-based, Canis lupus familiaris; settings: in vivo
[25] = Volume of distribution at steady state in dog at 1 mg/kg, iv; type: ADME, organism-based, Canis lupus familiaris; settings: in vivo, read-out: Vdss
[26] = Cmax in dog at 2 mg/kg, po; type: ADME, organism-based, Canis lupus familiaris; settings: in vivo
[27] = AUC (0 to t) in dog at 2 mg/kg, po; type: ADME, organism-based, Canis lupus familiaris; settings: in vivo
[28] = Half life in dog at 2 mg/kg, po; type: ADME, organism-based, Canis lupus familiaris; settings: in vivo
[29] = Oral bioavailability in dog at 2 mg/kg; type: ADME, organism-based, Canis lupus familiaris; settings: in vivo
[30] = Toxicity in C57BL/6J mouse assessed as effect on body weight at 30 mg/kg, po BID measured after 19 days; type: organism-based; settings: in vivo, 456 h, time 19 day
[31] = tested on: MC-38; assay: Antitumor activity in mouse MC38 cells xenografted in C57BL/6J mouse model assessed as tumor growth inhibition at 30 mg/kg, po BID administered for 19 days relative to control; type: functional; settings: MC-38, 456 h, time 19 day, read-out: TGI
[32] = Kinetic solubility of the compound at pH 7.4; settings: buffer
[33] = Apparent permeability of compound in human Caco-2 cells across apical to basolateral side
[34] = Apparent permeability of compound in human Caco-2 cells across basolateral to apical side
[35] = Half life in mouse at 1 mg/kg, iv; type: ADME, organism-based; settings: in vivo
[36] = Cmax in mouse at 1 mg/kg, iv; type: ADME, organism-based; settings: in vivo
[37] = AUC (0 to t) in mouse at 1 mg/kg, iv; type: ADME, organism-based; settings: in vivo
[38] = Solubility of compound in FeSSIF at pH 7.4
[39] = Solubility of compound in FaSSIF at pH 7.4
[40] = Efflux ratio of apparent permeability in human Caco-2 cells across basolateral to apical side over apical to basolateral side

O=C1CN(c2c(O)cc3c(c2F)CCN(CCCC2CC2)CC3)S(=O)(=O)N1
pIC50 [1]: 8.35 | pIC50 ([2]; Mus musculus, B16-F10): 6.61 | half-life [3]: 4.55 h | Cmax [4]: 621 ng/mL | AUC(0-t) [5]: 3480 ng·h/mL

CCN1CCc2cc(O)c(N3CC(=O)NS3(=O)=O)c(F)c2CC1
pIC50 [6]: 8.51 | pIC50 [1]: 8.03 | pIC50 ([2]; Mus musculus, B16-F10): 6.67 | fraction unbound [7]: 0.804 | fraction unbound [8]: 0.884 | fraction unbound [9]: 0.815 | half-life [3]: 2.37 h | Cmax [4]: 4750 ng/mL | AUC(0-t) [5]: 20900 ng·h/mL | pKd [10]: 8.06 | LBF [11]: 12.7% | Vd [12]: 0.4 L/kg | bioavailability [13]: 140% | Cmax [14]: 17800 ng/mL | AUC(0-t) [15]: 69200 ng·h/mL | half-life [16]: 2.1 h | bioavailability [17]: 93% | LBF [18]: 15% | Vd [19]: 0.26 L/kg | Cmax [20]: 368 ng/mL | AUC(0-t) [21]: 1940 ng·h/mL | half-life [22]: 2.37 h | bioavailability [23]: 19% | LBF [24]: 14.1% | Vd [25]: 0.35 L/kg | Cmax [26]: 402 ng/mL | AUC(0-t) [27]: 1430 ng·h/mL | half-life [28]: 1.31 h | bioavailability [29]: 19% | Activity [30]: Non-Toxic | inhibition in vivo at 30 mg/kg [31]: 89%

O=C1CN(c2c(O)cc3c(c2F)CCN(CC2CC2)CC3)S(=O)(=O)N1
pIC50 [1]: 8.22 | pIC50 ([2]; Mus musculus, B16-F10): 6.40 | solubility kinetic [32]: 202 µM (≈ 74.6 µg/mL) | Papp A→B [33]: 0.28 ×10⁻⁶ cm/s | Papp B→A [34]: 0.18 ×10⁻⁶ cm/s | fraction unbound [7]: 0.638 | fraction unbound [8]: 0.801 | half-life [3]: 4.34 h | Cmax [4]: 899 ng/mL | AUC(0-t) [5]: 5140 ng·h/mL

O=C1CN(c2c(O)cc3c(c2F)CCN(CC(F)F)CC3)S(=O)(=O)N1
pIC50 [1]: 7.00 | pIC50 ([2]; Mus musculus, B16-F10): 5.27

O=C1CN(c2c(O)cc3c(c2F)CCNCC3)S(=O)(=O)N1
pIC50 [1]: 7.71 | pIC50 ([2]; Mus musculus, B16-F10): 6.46

CN1CCc2cc(O)c(N3CC(=O)NS3(=O)=O)c(F)c2CC1
pIC50 [1]: 8.35 | pIC50 ([2]; Mus musculus, B16-F10): 6.34 | Papp A→B [33]: < 0.48 ×10⁻⁶ cm/s | fraction unbound [7]: 0.998 | fraction unbound [8]: 0.852 | fraction unbound [9]: 0.874 | half-life [35]: 0.9 h | Cmax [36]: 3200 ng/mL | AUC(0-t) [37]: 1490 ng·h/mL | half-life [3]: 2.22 h | Cmax [4]: 2290 ng/mL | AUC(0-t) [5]: 7980 ng·h/mL

CC(C)N1CCc2cc(O)c(N3CC(=O)NS3(=O)=O)c(F)c2CC1
pIC50 [1]: 8.04 | pIC50 ([2]; Mus musculus, B16-F10): 6.42

O=C1CN(c2c(O)cc3c(c2F)CCN(CCC2CC2)CC3)S(=O)(=O)N1
pIC50 [1]: 8.37 | pIC50 ([2]; Mus musculus, B16-F10): 6.93 | half-life [3]: 4.64 h | Cmax [4]: 328 ng/mL | AUC(0-t) [5]: 1320 ng·h/mL

CCC1Cc2c(cc(O)c(N3CC(=O)NS3(=O)=O)c2F)CCN1 (racemic)
pIC50 [1]: 8.01 | pIC50 ([2]; Mus musculus, B16-F10): 6.37

CC1Cc2c(cc(O)c(N3CC(=O)NS3(=O)=O)c2F)CCN1 (racemic)
half-life [3]: 1.25 h | Cmax [4]: 392 ng/mL | AUC(0-t) [5]: 1360 ng·h/mL

CC1Cc2c(cc(O)c(N3CC(=O)NS3(=O)=O)c2F)CCN1CC1CC1 (racemic)
pIC50 [1]: 7.55 | pIC50 ([2]; Mus musculus, B16-F10): 5.99

CCC1Cc2c(cc(O)c(N3CC(=O)NS3(=O)=O)c2F)CCN1C (racemic)
pIC50 [1]: 7.12 | pIC50 ([2]; Mus musculus, B16-F10): 4.75

CC1Cc2c(cc(O)c(N3CC(=O)NS3(=O)=O)c2F)CCN1C (racemic)
pIC50 [1]: 7.76 | pIC50 ([2]; Mus musculus, B16-F10): 6.17

CC1Cc2c(cc(O)c(N3CC(=O)NS3(=O)=O)c2F)CCN1 (stereo in doubt; 10a)
pIC50 [1]: 8.30 | pIC50 ([2]; Mus musculus, B16-F10): 6.56

CC1Cc2c(cc(O)c(N3CC(=O)NS3(=O)=O)c2F)CCN1 (stereo in doubt; 10b)
pIC50 [1]: 7.76 | pIC50 ([2]; b16-f10): 6.34

CC(C)CCN[C@@H]1CCc2cc(O)c(N3CC(=O)NS3(=O)=O)c(F)c2C1 [OSUNPROTAFIB]
pIC50 [6]: 9.16 | solubility [38]: 223 µM (≈ 86 µg/mL) | pIC50 [1]: 8.66 | pIC50 ([2]; Mus musculus, B16-F10): 7.36 | solubility kinetic [32]: 204 µM (≈ 78.6 µg/mL) | Papp A→B [33]: 1.43 ×10⁻⁶ cm/s | Papp B→A [34]: 0.093 ×10⁻⁶ cm/s | fraction unbound [7]: 0.585 | fraction unbound [8]: 0.978 | fraction unbound [9]: 0.896 | half-life [35]: 1.13 h | Cmax [36]: 1860 ng/mL | AUC(0-t) [37]: 851 ng·h/mL | half-life [3]: 4.21 h | Cmax [4]: 78 ng/mL | AUC(0-t) [5]: 903 ng·h/mL | solubility [39]: 206 µM (≈ 79.4 µg/mL) | efflux ratio [40]: 0.065 | LBF [11]: 22.1% | Vd [12]: 0.68 L/kg | bioavailability [13]: 11% | Cmax [14]: 278 ng/mL | AUC(0-t) [15]: 3820 ng·h/mL | half-life [16]: 4.86 h | bioavailability [17]: 9% | LBF [18]: 24.9% | Vd [19]: 0.33 L/kg | Cmax [20]: 38 ng/mL | AUC(0-t) [21]: 173 ng·h/mL | bioavailability [23]: 1.4% | LBF [24]: 20.9% | Vd [25]: 0.31 L/kg | Cmax [26]: 67 ng/mL | AUC(0-t) [27]: 319 ng·h/mL | half-life [28]: 3.41 h | bioavailability [29]: 6%
